Experiments:
K562 = assay: In vitro effect on human leukemia K562 cell proliferation; format: functional, cell-based
Nucleic Acid = assay: Inhibition of human estrogen receptor(ER) polymerase-chain reaction product; format: functional

IC50 (K562) [µM] | IC50 (Nucleic Acid) [µM] | SMILES
5 | 50 | Cn1cc(NC(=O)c2cc(NC(=O)c3cc(NC=O)cn3C)cn2C)cc1C(=O)NCCC(=N)N [STALLIMYCIN]
0.2 | 8 | COc1cc2c(cc1OCCC(=O)Nc1cc(C(=O)Nc3cc(C(=O)Nc4cc(C(=O)NCCC(=N)N)n(C)c4)n(C)c3)n(C)c1)N=C[C@@H]1CCCN1C2=O
1 | > 300 | COC(=O)CCOc1cc2c(cc1OC)C(=O)N1CCC[C@H]1C=N2
1 | 50 | COC(=O)CCOc1cc2c(cc1OC)C(=O)N1CCC[C@H]1C=N2.Cn1cc(NC(=O)c2cc(NC(=O)c3cc(NC=O)cn3C)cn2C)cc1C(=O)NCCC(=N)N

From ChEMBL document CHEMBL1130652, “Design, synthesis and biological activity of a pyrrolo [2,1-c][1,4]benzodiazepine (PBD)-distamycin hybrid” (Bioorg Med Chem Lett, 1998)
